≈ marks a conversion by molar mass, not a printed value. Read-outs that look alike come from different tables or passages of the source.
What was measured:
[1] = test system: Staphylococcus epidermidis; test: MIC against Staphylococcus epidermidis; type: cell-based; settings: Staphylococcus epidermidis; Table 3; heart infusion agar, 37° C., 24 hours; read-out: MIC
From the text: (§1) Below are described the antibacterial activities of the compounds in the compositions according to this invention. The results of antibacterial activity tests on the N-alkyl-substituted azaalkenelactams and their derivatives having a carboxylate radical of Examples 1 to 70 were as shown in Tables 1 to 3.
(§2) The testing method complied with the standard method of Japan Sociaty of Chemotherapy.

[2] = test system: Desulfovibrio desulfuricans IFO 13699; test: MIC against Desulfovibrio desulfuricans; type: cell-based; settings: Desulfovibrio desulfuricans
From the text: (§3) Below are described the antibacterial activities of the compounds in the compositions according to this invention.
as §2

[3] = test system: Staphylococcus aureus FDA 209P; test: MIC against Staphylococcus aureus FDA 209P; type: cell-based; settings: Staphylococcus aureus, FDA209P
From the text: as §3, §2

Streptococcus faecalis = test: MIC against Streptococcus faecalis; type: cell-based; settings: Enterococcus faecalis
From the text: as §1, §2

Escherichia coli NIHJ = test: MIC against Escherichia coli NIHJ; type: cell-based; settings: Escherichia coli
From the text: as §3, §2

Pasteurella multocida = test: MIC against Pasteurella multocida; type: cell-based; settings: Pasteurella multocida; Table 3; heart infusion agar, 37° C., 24 hours; read-out: MIC
From the text: as §1, §2

[4] = test system: Pseudomonas aruginosa IFO 3443; test: MIC against Pseudomonas aeruginosa; type: cell-based; settings: Pseudomonas
From the text: as §1, §2

[5] = test system: Bacillus subtilis ATCC 6633; test: MIC against Bacillus subtilis ATCC 6633; type: cell-based; settings: Bacillus subtilis, ATCC6633, 24 h
From the text: as §1, §2

Salmonella typhinurium = test: microbe, parasite or virus in culture; type: cell-based, Salmonella typhimurium; settings: Table 3, heart infusion agar, 37° C., 24 hours, read-out: MIC
From the text: as §1, §2

[6] = Table 1, azaalkenelactams, heart infusion agar, 37° C., 24 hours, read-out: MIC

## CCCCCCCCCCCCCCC(O)CNCCN1CCN=CC(C)(C)C1=O (stereo not drawn) [Example 59, 4-(2-hydroxyhexadecyl)aminoethyl-6,6-dimethyl-3-hydro-2H-1,4-diazepin-5-one]
[1]
  MIC: 1.56 µg/mL (≈ 3.68 µM)
[2]; IFO13699, Table 1, azaalkenelactams, heart infusion agar, 37° C., 24 hours, read-out: MIC
  MIC: 3.12 µg/mL (≈ 7.36 µM)
[3]; [6]
  MIC: 6.25 µg/mL (≈ 14.8 µM)
Streptococcus faecalis; Table 3, heart infusion agar, 37° C., 24 hours, read-out: MIC
  MIC: 6.25 µg/mL (≈ 14.8 µM)
Escherichia coli NIHJ; [6]
  MIC: 25 µg/mL (≈ 59 µM)
Pasteurella multocida
  MIC: < 1.56 µg/mL
[4]; IFO3443, Table 3, heart infusion agar, 37° C., 24 hours, read-out: MIC
  MIC: 100 µg/mL (≈ 236 µM)
[5]
  MIC: 3.12 µg/mL (≈ 7.36 µM)
Salmonella typhinurium
  MIC: 3.12 µg/mL (≈ 7.36 µM)

## CCCCCCCCCCCCCCNCCN1CCCN=CC(C)(C)C1=O [Example 60, 1-tetradecylaminoethyl-3,3-dimethyl-6,7,8-trihydro-1,5-diazocin-5-one]
[1]
  MIC: 1.56 µg/mL (≈ 3.96 µM)
[2]; IFO13699, 24 h
  MIC: 6.25 µg/mL (≈ 15.9 µM)
[3]; 24 h
  MIC: 6.25 µg/mL (≈ 15.9 µM)
Streptococcus faecalis; 24 h
  MIC: 6.25 µg/mL (≈ 15.9 µM)
Escherichia coli NIHJ; 24 h
  MIC: 12.5 µg/mL (≈ 31.8 µM)
Pasteurella multocida
  MIC: < 1.56 µg/mL
[4]; IFO3443, 24 h
  MIC: 100 µg/mL (≈ 254 µM)
[5]
  MIC: 3.12 µg/mL (≈ 7.93 µM)
Salmonella typhinurium
  MIC: 3.12 µg/mL (≈ 7.93 µM)

## CCCCCCCCCCCCCCC(O)CNCCN1CCCN=CC(C)(C)C1=O (stereo not drawn) [Example 61, 1-(2-hydroxyhexadecyl)aminoethyl-3,3-dimethyl-6,7,8-trihydro-1,5-diazocin-5-one]
[1]
  MIC: 1.56 µg/mL (≈ 3.56 µM)
[2]; IFO13699, 24 h
  MIC: 6.25 µg/mL (≈ 14.3 µM)
[3]; 24 h
  MIC: 6.25 µg/mL (≈ 14.3 µM)
Streptococcus faecalis; 24 h
  MIC: 6.25 µg/mL (≈ 14.3 µM)
Escherichia coli NIHJ; 24 h
  MIC: 25 µg/mL (≈ 57.1 µM)
Pasteurella multocida
  MIC: < 1.56 µg/mL
[4]; IFO3443, 24 h
  MIC: 200 µg/mL (≈ 457 µM)
[5]
  MIC: 3.12 µg/mL (≈ 7.13 µM)
Salmonella typhinurium
  MIC: 3.12 µg/mL (≈ 7.13 µM)

## CCCCCCCCCCCCCCNCCN1CCN=CCC(C)C1=O (stereo not drawn) [Example 65, 4-tetradecylaminoethyl-6-methyl-2,3,6,7-tetrahydro-1,4-diazocin-5-one]
[1]
  MIC: 1.56 µg/mL (≈ 4.11 µM)
[2]; IFO13699, 24 h
  MIC: 6.25 µg/mL (≈ 16.5 µM)
[3]; [6]
  MIC: 3.12 µg/mL (≈ 8.22 µM)
Streptococcus faecalis; 24 h
  MIC: 6.25 µg/mL (≈ 16.5 µM)
Escherichia coli NIHJ; 24 h
  MIC: 12.5 µg/mL (≈ 32.9 µM)
Pasteurella multocida
  MIC: < 1.56 µg/mL
[4]; IFO3443, 24 h
  MIC: 100 µg/mL (≈ 263 µM)
[5]
  MIC: 3.12 µg/mL (≈ 8.22 µM)
Salmonella typhinurium
  MIC: 3.12 µg/mL (≈ 8.22 µM)

## CCCCCCCCCCCCCCC(O)CNCCN1CCN=CCC(C)C1=O (stereo not drawn) [Example 66, 4-(2-hydroxyhexadecyl)aminoethyl-6-methyl-2,3,6,7-tetrahydro-1,4-diazocin-5-one]
[1]
  MIC: 1.56 µg/mL (≈ 3.68 µM)
[2]; IFO13699, 24 h
  MIC: 12.5 µg/mL (≈ 29.5 µM)
[3]; 24 h
  MIC: 12.5 µg/mL (≈ 29.5 µM)
Streptococcus faecalis; 24 h
  MIC: 6.25 µg/mL (≈ 14.8 µM)
Escherichia coli NIHJ; 24 h
  MIC: 25 µg/mL (≈ 59 µM)
Pasteurella multocida
  MIC: < 1.56 µg/mL
[4]; IFO3443, 24 h
  MIC: 200 µg/mL (≈ 472 µM)
[5]
  MIC: 6.25 µg/mL (≈ 14.8 µM)
Salmonella typhinurium
  MIC: 3.12 µg/mL (≈ 7.36 µM)
